Results published in patent US20240277632A1, “Epinephrine Pharmaceutical Formulations for Intranasal Delivery” (priority 2020, published 2024).

Columns and labels:
[1] = aqueous epinephrine by the IN route, no enhancer; cited from earlier work
in vivo = conditions: rat, in vivo
Method: (§1) Each rat was treated with two (2) IN administrations of the respective formulations in Groups A1-A5.
(§2) The analysis of clinical pathology was conducted by a qualified veterinary laboratory (Quality Veterinary Laboratory (QVL), Davis, California, USA).
(§3) Histopathological evaluation was conducted by a qualified pathology laboratory (Experimental Pathology Laboratories, Inc. (EPL), Sterling, Virginia, USA). […] EPL's histopathological findings were graded from 1 to 5, with 1 as minimal, and 5 as severe, depending upon severity.

rats = assay: in vivo; conditions: rats
Method: as §1, §2, §3

[2] = human; cohort 1 (T2, T4a, Ra)
nasal mucosa of rats = assay: Local toxicity study of STCDC, histopathology of nasal mucosa (Example 5); assay type: in vivo; conditions: rat; after exposure to STCDC and epinephrine
Method: Example 5 is an animal study designed to investigate the possible histological effects of bile salts (STCDC) on nasal mucosa of rats when the bile salt is used as an absorption enhancer for IN delivery. […] These IN formulations were administered intranasally to the rats. The histopathology of the rat's nasal tissue was examined to evaluate nasal mucosa tolerance to these tested IN formulations.
In Table 5.1, Group Nos. 2-6 each had excipients of about 8.5 mg/mL sodium chloride, about 3.84 mg/mL citric acid, about 1.5 mg/mL sodium metabisulfite, about 2.3 mg/mL HCl (10% w/v), and a pH adjustor (NaOH) as needed to adjust the pH to 3.6. […]
In total, EPL assessed 48 types of microscopic findings in nasal turbinate cavity level I through IV, as detailed in Table 5.3. […]
In order to quantitatively analyze the data for histopathological findings, the three (3) quantities, (i) total observation point (TOP), denoted as TOP, (ii) Average TOP per item per rat, and (iii) average occurrence for Level i (AOL)-i (i=1-5) were analyzed.
where m1, m2, m3, m4, and m5 are number of findings with Level 1, 2, 3, 4, 5, respectively, from the 48 microscopic histopathological items (as detailed in Table 5.3) assessed by EPL, n is the number of rats examined.

CNCC(O)c1ccc(O)c(O)c1 (single isomer, unassigned; (-)) [epinephrine, (-)-3,4-Dihy droxy-α-[(methyl-amino)methyl]benzyl alcohol]
bioavailability (BA) based on AUC in plasma concentration, IN relative to same dose by IM route [1]: approximately 5%

C[C@H](CCC(=O)NCCS(=O)(=O)[O-])[C@H]1CC[C@H]2[C@@H]3[C@H](O)C[C@@H]4C[C@H](O)CC[C@]4(C)[C@H]3C[C@H](O)[C@]12C.[Na+] [STC, sodium taurocholate]
NOAEL (in vivo): ≥ 2.5 mg/kg | NOAEL for bile salt (STC) at an IN delivery, relative dose (rats; 15 mg/mL x 0.025 mL x 2, body weight 0.298 kg): 2.5 mg/kg | NOAEL for the bile salt (STC), concentration (rats; IN administration, highest studied concentration): exceeding 15 mg/mL | baseline level of plasma STC [2]: approximately 20 pg/mL

C[C@H](CCC(=O)NCCS(=O)(=O)[O-])[C@H]1CC[C@H]2C3[C@H](O)C[C@@H]4C[C@H](O)CC[C@]4(C)[C@H]3CC[C@]12C.[Na+] (stereo partly drawn) [STCDC, sodium taurochenodeoxycholate]
course of observed nasal toxicity items over time (average TOP, FIG. 6D) (nasal mucosa of rats): nearly normal at two weeks post-dose
